Tests used:
MAT2B = molecular target: T1, MAT2B (Homo sapiens, UniProt Q9NZL9); assay: Streptavidin bead pull-down binding assay, GST-MAT2B; settings: recombinant protein from E. coli
T1 construct: made in house; host or cells: E. coli BL21
T1 sequence (Q9NZL9 1-334): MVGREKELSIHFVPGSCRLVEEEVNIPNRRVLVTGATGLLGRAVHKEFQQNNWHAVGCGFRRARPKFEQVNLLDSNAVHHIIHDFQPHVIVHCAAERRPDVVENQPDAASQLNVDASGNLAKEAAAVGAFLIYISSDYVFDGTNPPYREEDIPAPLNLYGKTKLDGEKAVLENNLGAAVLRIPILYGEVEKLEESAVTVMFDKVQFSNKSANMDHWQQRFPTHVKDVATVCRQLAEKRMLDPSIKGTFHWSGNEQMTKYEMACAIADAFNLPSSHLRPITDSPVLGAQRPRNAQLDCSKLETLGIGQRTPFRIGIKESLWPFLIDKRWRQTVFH
Procedure: (§1) MAT2A and MAT2B were cloned into pGEX6p3 vector. The constructs were transfected into E. coli BL21. The GST-fusion proteins were induced by IPTG and purified by glutathione beads as described previously (See Liu, beta-Trcp couples beta-catenin phosphorylation-degradation and regulates Xenopus axis formation. Proc Natl Acad Sci USA 1999, 96, 6273-8). For the binding assay, purified proteins were incubated with streptavidin beads and biotinylated FlDAS 13 described above. Eluted proteins were analyzed by western blot with antibodies against GST, MAT2A or MAT2B.
(§2) Since MAT2A and MAT2B bind each other and form a complex, to determine which subunit directly interacts with FIDAS reagents, recombinant MAT2A and MAT2B were purified and tested for interaction with FIDAS. Briefly, GST-MAT2A and GST-MAT2B fusion proteins were expressed and purified from E. coli. These proteins were incubated with streptavidin beads with or without biotinylated derivative 13 (FIG. 9A). The binding proteins were eluted by 2.5 mM D-biotin and analyzed by Western blot with an anti-GST-Ab.

MAT2A = MAT2A (Homo sapiens, UniProt P31153); assay: Streptavidin bead pull-down binding assay, GST-MAT2A; parameters: GST (N); made in house; settings: recombinant protein from E. coli
Procedure: as §1, §2

MAT2A-K265L = molecular target: T2, MAT2A-K265L (Homo sapiens, UniProt P31153, K265L); assay: In vitro binding assay, mutant MAT2A (K265L); settings: lysine 265 mutated to leucine
T2 construct: made in house
Text: To test if the halogenated stilbene analogs of the present disclosure also bind MAT1A, a His-tagged MAT1A was cloned in and purified from E. coli. […] According to published MAT structures, several key residues are involved in substrate binding and catalysis. Among these key residues, lysine 265 is conserved between MAT1A and MAT2A and among different species. […] Taken together, the FlDAS reagents are specific inhibitors of MAT2A, and are promising drug candidates for multiple cancers as well as metabolic diseases.

Sequence of MAT2A (P31153 whole entry): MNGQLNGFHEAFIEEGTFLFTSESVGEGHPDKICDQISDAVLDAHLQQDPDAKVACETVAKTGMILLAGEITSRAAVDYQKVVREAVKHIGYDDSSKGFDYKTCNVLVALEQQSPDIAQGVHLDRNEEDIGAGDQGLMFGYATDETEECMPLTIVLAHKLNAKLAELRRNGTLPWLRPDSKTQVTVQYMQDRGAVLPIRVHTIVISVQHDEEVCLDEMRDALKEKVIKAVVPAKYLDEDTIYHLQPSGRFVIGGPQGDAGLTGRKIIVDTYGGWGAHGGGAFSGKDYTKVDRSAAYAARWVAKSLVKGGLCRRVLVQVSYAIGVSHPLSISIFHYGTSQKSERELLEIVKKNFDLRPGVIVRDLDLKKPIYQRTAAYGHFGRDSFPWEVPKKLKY
T2 sequence (P31153 whole entry K265L): as the sequence (P31153 whole entry) above, with K265L counted along it

For CN(CC(=O)NCCOCCOCCNC(=O)CCCCC1SCC2NC(=O)NC21)c1ccc(C=Cc2c(F)cccc2F)cc1 (stereo not drawn) [compound 13, N-(2-(4-(2,6-Difluorostyryl)phenyl)-4-oxo-8,11-dioxa-2,5-diazamidecan-13-yl)-5-(2-oxohexahydro-1H-thieno[3,4-d]imidazol-4-yl)pentanamide], the “binding to MAT2B” value (MAT2B) was “indirectly through MAT2A”, the “binding to MAT2A” value (MAT2A) was “directly binds” and the “binding to mutant MAT2A (K265L)” value (MAT2A-K265L) was “significantly decreased”.
